Measurements from patent US6878742B2, “Heterocyclic sulfonamide inhibitors of beta amyloid production” (Wyeth, priority 2000, dated 2005).
Where “and” joins values, the source holds several entries; their conditions need not be identical. Equal values may be shown once.

What follows are compounds tested on amyloid precursor protein (APP) proteolysis (assay: Repressor Release Assay (RRA)). Settings: Conc 0.3 μg/mL; luciferase activity over diluent control.
Format: cell-based
Description: The beta amyloid inhibitory activity of many of the compounds of the present invention has been determined using the Repressor Release Assay (RRA). See, Table 23 below. A compound is considered active in RRA if it leads to at least a 1.5 fold increase in luciferase activity at 20 μM and is non-toxic.
The compounds generated as described in Examples 1 through 220 were tested in the RRA in accordance with published techniques [Shuey, D. J., Sheiffele, P., Jones, D., Cockett, M. I., and Quinet, E. M. (1999), “Repressor release: a useful tool for monitoring amyloid precursor protein (APP) proteolysis in mammalian cells”, Society for Neuroscience Abstracts, Vol. 25, 29th Annual Meeting of Society for Neuroscience, Miami Beach, Fla., Oct. 23-28, 1999]. Briefly, this assay is performed as follows.
CHO-K1 cells are cultured in whole DMEM media (DMEM—High Glucose with 10% fetal bovine serum, 1% Non-essential Amino Acids, and 1% Penicillin-Streptomycin) at 37° C. with 5% CO2. Two million cells are plated into 10-cm dishes 24 hrs prior to transfection.
Transient transfections are completed as recommended by Gibco BRL using their Lipofectamine Plus system. First, 6 μg of pRSVO-luc and 6 μg of APP-lacI construct DNA are added to 460 μL Opti-Mem transfection media and incubated with 30 μL Plus reagent for 15 minutes. Then, a lipid mixture of 40 μL Lipofectamine reagent and 460 μL Opti-Mem transfection media is incubated with the DNA-Plus reagent mixture for 15 minutes. During the DNA-lipid incubation, the CHO-K1 cells are washed once and covered in 5.0 mL DMEM media without Penicillin-Streptomycin. The DNA-lipid preparation is then layered onto these cells and incubated at 37° C. overnight.
One and one half million transfected cells per well (100 μL total volume) are plated into sterile, opaque Packard 96-well Cultur-Plates in clear DMEM whole media (DMEM—without phenol red) and incubated at 37° C. with 5% CO2 for 3-5 hours.
Compounds are diluted using two different protocols; one protocol is used for compounds supplied neat (weighed powder in vial) and the other protocol is used for compounds supplied in solution (20 mM in DMSO in 96-well plates). For both protocols, 25 mM Hepes and 25 mM Hepes/1% DMSO are prepared fresh to be used as diluent. The Hepes/DMSO is used as the diluent control on all experimental plates.
The following table depicts the steps for compound dilution (please note that the last step is the addition of compound to cells/media in tissue culture plate):
Because some compounds arrive in 96-well format at 20 mM, the following represents the protocol for their dilution (note that an average molecular weight of these compounds was used to calculate these dilutions and as above, the last step is the addition of compound to cells/media in tissue culture plate):
Once compounds are diluted, they are applied in duplicate on cells in tissue culture plates (prepared above). Cells are incubated with compound at 37° C. with 5% CO2 for an additional 36-48 hours.
Luciferase assays (LucLite reagent, Packard) are performed and are read on a Packard TopCount instrument. Media is removed from each 96-well plate and replaced with 100 μL PBS per well (with Mg^2+ and Ca^2+). An equal volume (100 μL) of the LucLite lysis/substrate buffer is added to each well and the plates are sealed and mixed in the dark on a rotary shaker for 15-30 minutes at room temperature. Luciferase readings are then taken on the TopCount instrument. Measurements are expressed as relative light units (RLU) and are calculated and analyzed in MS Excel as follows.
A compound is considered active in RRA if it leads to at least a 1.5 fold increase in luciferase activity at 20 μM and is non-toxic, as determined by loss of signal (≦0.75 fold increase). Fold increase is the amount of luciferase activity (measured in relative light units) over diluent control. SEM represents the standard error of the mean for fold increase (not shown).

| Compound | APPI Fold Increase |
| --- | --- |
| CC[C@@H](C)[C@@H](CO)NS(=O)(=O)c1ccc(Cl)s1 [Example 16] | 1.7 fold |

Same assay, conditions: Conc 1 μg/mL; luciferase activity over diluent control

| Compound | APPI Fold Increase |
| --- | --- |
| CC[C@H](C)[C@@H](CO)NS(=O)(=O)c1ccc(Cl)s1 [Example 4] | 2.22 fold |
| CC[C@@H](C)[C@@H](CO)NS(=O)(=O)c1ccc(Cl)s1 [Example 16] | 1.9 fold and 2.56 fold |

Same assay, conditions: Conc 3 μg/mL; luciferase activity over diluent control

| Compound | APPI Fold Increase |
| --- | --- |
| CC[C@H](C)[C@@H](CO)NS(=O)(=O)c1ccc(Cl)s1 [Example 4] | 2.98 fold and 3.52 fold |
| CC[C@@H](C)[C@@H](CO)NS(=O)(=O)c1ccc(Cl)s1 [Example 16] | 3.1 fold and 4.47 fold |

Same assay, conditions: Conc 10 μg/mL; luciferase activity over diluent control

| Compound | APPI Fold Increase |
| --- | --- |
| CC(C)(C)[C@@H](CO)NS(=O)(=O)c1ccc(Br)s1 [Example 113] | 2.86 fold |
| CC[C@H](C)[C@@H](CO)NS(=O)(=O)c1ccc(Cl)s1 [Example 4] | 3.3 fold and 5.03 fold |
| CC[C@H](C)[C@@H](CO)NS(=O)(=O)c1cc(Br)c(Cl)s1 [Example 3] | 1 fold |
| CC[C@@H](C)[C@@H](CO)NS(=O)(=O)c1ccc(Cl)s1 [Example 16] | 4.19 fold and 3.2 fold |

Same assay, conditions: Conc 10 μg/mL; luciferase activity over diluent control; read-out: APPI Fold Increase

| Compound | fold induction at 10 µg/mL |
| --- | --- |
| CC[C@H](C)[C@@H](CO)NS(=O)(=O)c1sc(Cl)cc1Br [Example 1, 3-Bromo-5-chloro-N-[(1S,2S)-1-(hydroxymethyl)-2-methylbutyl]thiophene-2-sulfonamide] | 1.57 |
| C=CCC(O)[C@@H](NS(=O)(=O)c1cccs1)[C@@H](C)CC (stereo partly drawn) [Example 147, N-{(S)-2-hydroxy-1-[(S)-1-methylpropyl]pent-4-enyl}thiophene-2-sulfonamide] | 2.04 |
| CC[C@H](C)[C@H](NS(=O)(=O)c1ccc(Cl)s1)C(O)(CC)CC [Example 166, 5-chloro-N-{(S)-2-ethyl-2-hydroxy-1-[(S)-1-methylpropyl]butyl}thiophene-2-sulfonamide] | 1.78 |
| C=CC(O)[C@@H](NS(=O)(=O)c1ccc(Cl)s1)[C@@H](C)CC (stereo partly drawn) [Example 127, 5-chloro-N-{(S)-2-hydroxy-1-[(S)-1-methylpropyl]but-3-enyl}thiophene-2-sulfonamide] | 4.27 |
| CC[C@H](C)[C@H](NS(=O)(=O)c1ccc(Br)s1)C(O)(CC)CC [Example 173, 5-bromo-N-{(S)-2-ethyl-2-hydroxy-1-[(S)-1-methylpropyl]butyl}thiophene-2-sulfonamide] | 1.5 |

Same assay, conditions: Conc 20 μg/mL; luciferase activity over diluent control

| Compound | APPI Fold Increase |
| --- | --- |
| CC[C@H](C)[C@@H](CO)NS(=O)(=O)c1ccc(Cl)s1 [Example 4] | 4 fold and 5.4 fold and 3.3 fold and 5.1 fold |
| O=S(=O)(NC1(CO)CCc2ccccc21)c1ccc(Cl)s1 (centres unmarked) [Example 179] | 8.3 fold |
| 5-bromo-N-{(S,S)-1-[(S)-1-hydroxyethyl]-2-methylbutyl}thiophene-2-sulfonamide [Example 190] | 4.4 fold and 2.6 fold |
| O=S(=O)(NC1(CO)Cc2ccccc2C1)c1ccc(Br)s1 [Example 183] | 3.7 fold |

Same assay, conditions: Conc 20 μg/mL; luciferase activity over diluent control; read-out: APPI Fold Increase

| Compound | fold induction at 20 µg/mL |
| --- | --- |
| O=S(=O)(N[C@H](CO)CSCc1ccccc1)c1ccc(Br)s1 [Example 114, N-[R-2-(benzylthio)-1-(hydroxymethyl)ethyl]-5-bromothiophene-2-sulfonamide] | 1.8 |
| O=S(=O)(NC1(CO)CCCCC1)c1ccc(Cl)s1 [Example 177, 5-Chloro-N-[1-(hydroxymethyl)cyclohexyl]thiophene-2-sulfonamide] | 5.1 |
| CCNC1CCC([C@@H](CO)NS(=O)(=O)c2ccc(Cl)s2)CC1 (stereo partly drawn) [Example 213, 5-chloro-N-[(S)-2-hydroxy-1-(4-ethylaminocyclohexyl)ethyl]thiophene-2-sulfonamide] | 1.6 |
| CCCCCC[C@@H](C(C)C)[C@@H](CO)NS(=O)(=O)c1ccc(Cl)s1 [Example 52, 5-chloro-N-[(1S,2S)-1-(hydroxymethyl)-2-isopropyloctyl]thiophene-2-sulfonamide] | 7 |
| O=[N+]([O-])c1ccc([C@@H](O)[C@@H](CO)NS(=O)(=O)c2ccc(Cl)s2)cc1 [Example 99, 5-chloro-N-[(R,R)-2-hydroxy-1-(hydroxymethyl)-2-(4-nitrophenyl)ethyl]thiophene-2-sulfonamide] | 1.5 |
| CC[C@H](CC(C)C)[C@@H](CO)NS(=O)(=O)c1ccc(Br)s1 [Example 59, 5-bromo-N-[(1S,2R)-2-ethyl-1-(hydroxymethyl)-4-methylpentyl]thiophene-2-sulfonamide] | 4.5 |
| Cc1cccc(CSC[C@@H](CO)NS(=O)(=O)c2ccc(Br)s2)c1 [Example 115, 5-bromo-N-(R-2-hydroxy-1-{[(3-methylbenzyl)thio]methyl}ethyl)thiophene-2-sulfonamide] | 4.4 |
| CC(C)[C@@](C)(CO)NS(=O)(=O)c1ccc(Cl)s1 [Example 26, 5-chloro-N-[(1S)-1-(hydroxymethyl)-1,2-dimethylpropyl]thiophene-2-sulfonamide] | 5 |
| CCCCCC[C@@H](c1ccco1)[C@@H](CO)NS(=O)(=O)c1ccc(Br)s1 [Example 73, 5-bromo-N-[(1S,2R)-2-(2-furyl)-1-(hydroxymethyl)octyl]thiophene-2-sulfonamide] | 1.9 |
| CC(C)C[C@@H](C(C)C)[C@@H](CO)NS(=O)(=O)c1ccc(Br)s1 [Example 75, 5-bromo-N-[(1S,2S)-1-(hydroxymethyl)-2-isopropyl-4-methylpentyl]thiophene-2-sulfonamide] | 4.7 |
| CC(C)[C@@](C)(CO)NS(=O)(=O)c1ccc(Br)s1 [Example 25, 5-Bromo-N-[(1S)-1-(hydroxymethyl)-1,2-dimethylpropyl]thiophene-2-sulfonamide] | 7.5 |
| CCC[C@H](CC(C)C)[C@@H](CO)NS(=O)(=O)c1ccc(Br)s1 [Example 61, 5-bromo-N-[(1S,2R)-1-(hydroxymethyl)-4-methyl-2-propylpentyl]thiophene-2-sulfonamide] | 5.7 |
| CCCCC[C@H](CC(C)C)[C@@H](CO)NS(=O)(=O)c1ccc(Cl)s1 [Example 42, 5-chloro-N-[(1S,2R)-1-(hydroxymethyl)-2-isobutylheptyl]thiophene-2-sulfonamide] | 3.4 |
| CCCCC[C@H](c1ccccc1)[C@@H](CO)NS(=O)(=O)c1ccc(Cl)s1 [Example 45, 5-chloro-N-[(1S,2R)-1-(hydroxymethyl)-2-phenylheptyl]thiophene-2-sulfonamide] | 2.1 |
| CCCCCC[C@@H](C)[C@@H](CO)NS(=O)(=O)c1ccc(Cl)s1 [Example 29, 5-chloro-N-[(1S,2R)-1-(hydroxymethyl)-2-methyloctyl]thiophene-2-sulfonamide] | 2.6 |
| CCCCCC[C@@H](CCC)[C@@H](CO)NS(=O)(=O)c1ccc(Cl)s1 [Example 37, 5-chloro-N-[(1S,2R)-1-(hydroxymethyl)-2-propyloctyl]thiophene-2-sulfonamide] | 4.8 |
| C[C@H](OCc1ccccc1)[C@@H](CO)NS(=O)(=O)c1ccc(Cl)s1 [Example 102, N-[(R,S)-2-(benzyloxy)-1-(hydroxymethyl)propyl]-5-chlorothiophene-2-sulfonamide] | 1.6 |
| O=S(=O)(N[C@H](CO)c1ccccc1)c1ccc(Cl)s1 [Example 89, 5-Chloro-N-[(S)-2-hydroxy-1-phenylethyl]thiophene-2-sulfonamide] | 2.3 |
| CC[C@H](C)[C@H](NS(=O)(=O)c1ccc(Cl)s1)[C@@H](O)C1C=CCCC1 (stereo partly drawn) [Example 155, 5-Chloro-N-{(S,S)-1-[(S)-cyclohex-2-en-1-yl(hydroxy)methyl]-2-methylbutyl}thiophene-2-sulfonamide] | 4.2 |

Same assay, conditions: read-out: APPI Fold Increase

| Compound | fold induction at 20 µg/mL |
| --- | --- |
| O=S(=O)(NC(CO)C1CC=CCC1)c1ccc(Cl)s1 (centres unmarked) [Example 23, 5-chloro-N-(1-cyclohex-3-en-1-yl-2-hydroxyethyl)thiophene-2-sulfonamide] | 6.4 |
